# From ChEMBL document CHEMBL5046248, “New Pqs Quorum Sensing System Inhibitor as an Antibacterial Synergist against Multidrug-Resistant Pseudomonas aeruginosa” (J Med Chem, 2022)
# Active and inactive are the calls of the source. The calls are words filed in the database; no cut-off is given here.
# Legend:
# [1] = system: Pseudomonas aeruginosa; test: Antibacterial activity against Pseudomonas aeruginosa PAO1 assessed as inhibition of biofilm formation for 24 hrs by crystal violet staining based assay; assay type: functional, organism-based; details: PAO1, 24 h
# [2] = system: Pseudomonas aeruginosa; test: Antibiofilm activity against Pseudomonas aeruginosa PAO1 assessed as suppression of biofilm formation for 24 hrs by fluorescent dye SYTO9 and propidium iodide staining based confocal laser microscopic analysis; assay type: functional, organism-based; details: dose 0.625-10 µM
# [3] = system: Pseudomonas aeruginosa; test: Synergistic antibacterial activity against multidrug-resistant Pseudomonas aeruginosa 1167 assessed as reduction in bacterial viability after 12 hrs in presence of colistin E; assay type: functional, organism-based
# [4] = system: Pseudomonas aeruginosa; test: Inhibition of quorum sensing system in Pseudomonas aeruginosa PAO1 assessed as reduction of pyocyanin expression in flask at 1.25 to 20 uM for 24 hrs; details: dose 1.25-20 µM
# [5] = system: Pseudomonas aeruginosa; test: Inhibition of rhamnolipid expression in Pseudomonas aeruginosa PAO1-mini-[…]-rhlA-lacZ strain assessed as decrease in beta-galactosidase at 1.25 to 20 uM; assay type: functional; details: PAO1-mini-ctx-[…]-lacZ, dose 1.25-20 µM
# [6] = system: Pseudomonas aeruginosa; test: Antibiofilm activity against Pseudomonas aeruginosa PAO1 assessed as inhibition of swarming motility for 16 hrs by motility assay; assay type: functional, organism-based; details: dose 1.25-20 µM
# [7] = system: Pseudomonas aeruginosa; test: Synergistic antibacterial activity against Pseudomonas aeruginosa PAO1 assessed as reduction in bacterial viability after 12 hrs in presence of 1/2 MIC of ciprofloxacin; assay type: functional, organism-based
# [8] = system: Pseudomonas aeruginosa; test: Synergistic antibacterial activity against multidrug-resistant Pseudomonas aeruginosa FB assessed as reduction in bacterial viability after 12 hrs in presence of colistin E; assay type: functional, organism-based
# [9] = system: Pseudomonas aeruginosa; test: Inhibition of quorum sensing system in Pseudomonas aeruginosa PAO1 assessed as effect on rhamnolipid production at 1.25 to 20 uM for 24 hrs; details: dose 1.25-20 µM
# [10] = system: Pseudomonas aeruginosa; test: Synergistic antibacterial activity against multidrug-resistant Pseudomonas aeruginosa 1129 assessed as reduction in bacterial viability after 12 hrs in presence of tobramycin; assay type: functional, organism-based
# [11] = system: Pseudomonas aeruginosa; test: Inhibition of beta-galactosidase expression in Pseudomonas aeruginosa PAO1-mini-[…]-lacZ strain at 1.25 to 20 uM; assay type: functional; details: dose 1.25-20 µM
# [12] = system: Pseudomonas aeruginosa; test: Antibiofilm activity against Pseudomonas aeruginosa PAO1 assessed as inhibition of twitching motility for 16 hrs by motility assay; assay type: functional, organism-based; details: dose 1.25-20 µM
# [13] = system: Pseudomonas aeruginosa; test: Antibiofilm activity against Pseudomonas aeruginosa PAO1 assessed as inhibition rate at 0.625 uM for 24 hrs by crystal violet staining based assay relative to control; assay type: functional
# [14] = system: Pseudomonas aeruginosa; test: Synergistic antibacterial activity against multidrug-resistant Pseudomonas aeruginosa 1167 assessed as reduction in bacterial viability after 12 hrs in presence of 1/2 MIC of ciprofloxacin; assay type: functional, organism-based
# [15] = system: H9c2; test: Cytotoxicity against rat H9c2 cells assessed as reduction in cell viability at up to 25 uM incubated for 24 hrs by MTT assay; assay type: toxicity, cell-based; details: h9c2, 24 h
# [16] = system: Pseudomonas aeruginosa; test: Inhibition of quorum sensing system in Pseudomonas aeruginosa PAO1 assessed as decrease of pyocyanin production at 1.25 to 20 uM for 24 hrs; details: dose 1.25-20 µM
# [17] = system: Pseudomonas aeruginosa; test: In vivo antibacterial activity against Pseudomonas aeruginosa PAO1-gfp infected in tail injured zebrafish model assessed as reduction in bacterial burden at 20 uM measured after 24 hrs of post infection; assay type: functional, organism-based
# [18] = system: Pseudomonas aeruginosa; test: Inhibition of pyocyanin expression in Pseudomonas aeruginosa PAO1-mini-[…]-pqsA-lacZ strain assessed as decrease in beta-galactosidase at 1.25 to 20 uM; assay type: functional; details: PAO1-mini-ctx-pqsA-lacZ, dose 1.25-20 µM
# [19] = system: Pseudomonas aeruginosa; test: In vivo antibacterial activity against Pseudomonas aeruginosa PAO1-gfp infected in tail injured zebrafish model assessed as reduction in mortality at 10 to 20 uM measured upto 50 hrs of post fertilization; assay type: functional, organism-based; details: dose 10-20 µM, time hrs <=50
# [20] = system: H9c2; test: Cytotoxicity against rat H9c2 cells assessed as reduction in cell viability at 50 uM incubated for 24 hrs by MTT assay; assay type: toxicity, cell-based; details: h9c2, 24 h
# [21] = system: Pseudomonas aeruginosa; test: Antibacterial activity against Pseudomonas aeruginosa PAO1 infected rat H9c2 cells assessed as reduction in virulence mediated cytotoxicity by measuring increase in cell viability by MTT assay; assay type: functional, organism-based; details: dose 1.25-20 µM
# [22] = system: Pseudomonas aeruginosa; test: Synergistic antibacterial activity against Pseudomonas aeruginosa PAO1 assessed as reduction in bacterial viability after 12 hrs in presence of tobramycin; assay type: functional, organism-based
# [23] = system: Pseudomonas aeruginosa; test: Synergistic antibacterial activity against multidrug-resistant Pseudomonas aeruginosa 1121 assessed as reduction in bacterial viability after 12 hrs in presence of colistin E; assay type: functional, organism-based
# [24] = system: Pseudomonas aeruginosa; test: Inhibition of elastase expression in Pseudomonas aeruginosa PAO1-mini-[…]-lasB-lacZ strain assessed as decrease in beta-galactosidase at 1.25 to 20 uM; assay type: functional; details: PAO1-mini-[…]-lasB-[…], dose 1.25-20 µM
# [25] = system: Pseudomonas aeruginosa; test: Antibiofilm activity against Pseudomonas aeruginosa PAO1 assessed as increase in pyoverdine production at 40 uM by fluorescence assay; assay type: functional, organism-based
# [26] = system: Pseudomonas aeruginosa; test: Synergistic antibacterial activity against multidrug-resistant Pseudomonas aeruginosa 1129 assessed as reduction in bacterial viability after 12 hrs in presence of colistin E; assay type: functional, organism-based
# [27] = system: Pseudomonas aeruginosa; test: Synergistic antibacterial activity against Pseudomonas aeruginosa PAO1 assessed as reduction in bacterial viability after 12 hrs in presence of colistin E; assay type: functional, organism-based
# [28] = system: Pseudomonas aeruginosa; test: Synergistic antibacterial activity against multidrug-resistant Pseudomonas aeruginosa 1121 assessed as reduction in bacterial viability after 12 hrs in presence of 1/2 MIC of ciprofloxacin; assay type: functional, organism-based
# [29] = system: Pseudomonas aeruginosa; test: Synergistic antibacterial activity against multidrug-resistant Pseudomonas aeruginosa FB assessed as reduction in bacterial viability after 12 hrs in presence of tobramycin; assay type: functional, organism-based
# [30] = system: Pseudomonas aeruginosa; test: In vivo antibacterial activity against Pseudomonas aeruginosa PAO1-gfp infected in tail injured zebrafish model assessed as increase in survival of zebrafish at 10 to 20 uM measured upto 50 hrs of post fertilization; assay type: functional, organism-based; details: dose 10-20 µM, time hrs <=50
# [31] = system: Pseudomonas aeruginosa; test: Synergistic antibacterial activity against multidrug-resistant Pseudomonas aeruginosa FB assessed as reduction in bacterial viability after 12 hrs in presence of 1/2 MIC of ciprofloxacin; assay type: functional, organism-based
# [32] = system: Pseudomonas aeruginosa; test: Inhibition of quorum sensing system in Pseudomonas aeruginosa PAO1 assessed as effect on elastase production for 24 hrs; details: dose 1.25-20 µM
# [33] = system: Pseudomonas aeruginosa; test: Antibiofilm activity against Pseudomonas aeruginosa PAO1 assessed as inhibition of swimming motility for 16 hrs by motility assay; assay type: functional, organism-based; details: dose 1.25-20 µM
# [34] = system: Pseudomonas aeruginosa; test: Synergistic antibacterial activity against multidrug-resistant Pseudomonas aeruginosa 1129 assessed as reduction in bacterial viability after 12 hrs in presence of 1/2 MIC of ciprofloxacin; assay type: functional, organism-based
# [35] = system: Pseudomonas aeruginosa; test: Antibiofilm activity against Pseudomonas aeruginosa PAO1 assessed as effect on pyochelin production fluorescence at 1.25 to 20 uM by fluorescence assay; assay type: functional, organism-based; details: dose 1.25-20 µM
# [36] = system: Pseudomonas aeruginosa; test: Antibacterial activity against Pseudomonas aeruginosa PAO1 infected rat H9c2 cells assessed as reduction in virulence mediated cytotoxicity by measuring cell survival rate at 20 uM by MTT assay (reference value: 36%); assay type: functional
# [37] = system: Pseudomonas aeruginosa; test: Antibacterial activity against Pseudomonas aeruginosa 1129 assessed as bacterial growth inhibition by broth microdilution method; assay type: functional
# [38] = system: Pseudomonas aeruginosa; test: Antibacterial activity against Pseudomonas aeruginosa 1121 assessed as bacterial growth inhibition by broth microdilution method; assay type: functional
# [39] = system: Pseudomonas aeruginosa; test: Antibacterial activity against Pseudomonas aeruginosa PAO1 assessed as bacterial growth inhibition by broth microdilution method; assay type: functional
# [40] = system: Pseudomonas aeruginosa; test: Antibacterial activity against Pseudomonas aeruginosa 1167 assessed as bacterial growth inhibition by broth microdilution method; assay type: functional
# [41] = system: Pseudomonas aeruginosa; test: Antibacterial activity against Pseudomonas aeruginosa FB assessed as bacterial growth inhibition by broth microdilution method; assay type: functional
compound,measurement,setting,value
CCCCn1c(C)cc(=O)c(O)c1CNC(=O)c1ccc(C(F)(F)F)cc1,IC50,[1],8.4 µM
CCCCn1c(C)cc(=O)c(O)c1CNS(=O)(=O)c1ccc(OC)cc1,IC50,[1],40.4 µM
Cn1cc(O)c(=O)cc1CNC(=O)Cc1ccc(F)cc1,IC50,[1],> 100 µM
CCCCCCC(=O)NCc1c(O)c(=O)cc(C)n1CC,IC50,[1],> 100 µM
CCCn1c(C)cc(=O)c(O)c1CNS(=O)(=O)c1ccc(OC)cc1,IC50,[1],59.6 µM
COc1ccc(CC(=O)NCc2cc(=O)c(O)cn2O)cc1,IC50,[1],> 100 µM
CCCCn1c(C)cc(=O)c(O)c1CNC(=O)c1ccc(OC)cc1,Activity,[2],Dose-Dependent Effect
same,Activity,[3],Dose-Dependent Effect
same,Activity,[4],Active
same,Activity,[5],inactive
same,Activity,[6],Dose-Dependent Effect
same,Activity,[7],Dose-Dependent Effect
same,Activity,[8],Dose-Dependent Effect
same,Activity,[9],inactive
same,Activity,[10],Dose-Dependent Effect
same,Activity,[11],inactive
same,Activity,[12],Dose-Dependent Effect
same,inhibition at 0.625 µM,[13],> 28%
same,IC50,[1],4.5 µM
same,Activity,[14],Dose-Dependent Effect
same,Activity,[15],Non-Toxic
same,Activity,[16],Dose-Dependent Effect
same,Activity,[17],Active
same,Activity,[18],Dose-Dependent Effect
same,Activity,[19],Active
same,Activity,[20],Toxic
same,Activity,[21],Dose-Dependent Effect
same,Activity,[22],Dose-Dependent Effect
same,Activity,[23],Dose-Dependent Effect
same,Activity,[24],inactive
same,Activity,[25],Active
same,Activity,[26],Dose-Dependent Effect
same,Activity,[27],Dose-Dependent Effect
same,Activity,[28],Dose-Dependent Effect
same,Activity,[29],Dose-Dependent Effect
same,Activity,[30],Active
same,Activity,[31],Dose-Dependent Effect
same,Activity,[32],inactive
same,Activity,[33],Dose-Dependent Effect
same,Activity,[34],Dose-Dependent Effect
same,Activity,[35],inactive
same,Activity,[36],79%
CCCCCCC(=O)NCc1c(O)c(=O)cc(C)n1CCC,IC50,[1],> 100 µM
CCCn1c(C)cc(=O)c(O)c1CNC(=O)c1ccc(C(F)(F)F)cc1,IC50,[1],> 100 µM
COc1ccc(C(=O)NCc2cc(=O)c(O)cn2O)cc1,IC50,[1],> 100 µM
CCCCCC(=O)NCc1c(O)c(=O)cc(C)n1CC,IC50,[1],> 100 µM
CCCCCCC(=O)NCc1c(O)c(=O)cc(C)n1CCCC,IC50,[1],> 100 µM
CCCCCCC(=O)NCc1cc(=O)c(O)cn1C,IC50,[1],> 100 µM
CCCCCn1c(C)cc(=O)c(O)c1CNC(=O)c1ccc(OC)cc1,IC50,[1],52.5 µM
CCCn1c(C)cc(=O)c(O)c1CNC(=O)c1cccc(OC)c1,IC50,[1],56.5 µM
CCCn1c(C)cc(=O)c(O)c1CNc1ccc(OC)cc1,IC50,[1],55.5 µM
CCCCCC(=O)NCc1cc(=O)c(O)cn1O,IC50,[1],> 100 µM
COCCn1c(C)cc(=O)c(O)c1CNC(=O)c1ccc(OC)cc1,IC50,[1],> 100 µM
Cn1cc(O)c(=O)cc1CNC(=O)c1ccc(C(F)(F)F)cc1,IC50,[1],> 100 µM
NC[C@H]1O[C@H](O[C@H]2[C@H](O)[C@@H](O[C@H]3O[C@H](CO)[C@@H](O)[C@H](N)[C@H]3O)[C@H](N)C[C@@H]2N)[C@H](N)C[C@@H]1O [TOBRAMYCIN],MIC,[37],10 µg/mL
same,MIC,[38],10 µg/mL
same,MIC,[39],5 µg/mL
same,MIC,[40],10 µg/mL
same,MIC,[41],10 µg/mL
CCCCn1c(C)cc(=O)c(O)c1CNC(=O)Cc1ccc(F)cc1,IC50,[1],> 100 µM
COCCn1c(C)cc(=O)c(O)c1CNC(=O)c1ccc(C(F)(F)F)cc1,IC50,[1],> 100 µM
O=C(Cc1ccc(F)cc1)NCc1cc(=O)c(O)cn1O,IC50,[1],> 100 µM
